Data reported in publication PMC12005307, “A biofilm-targeting lipo-peptoid to treat Pseudomonas aeruginosa and Staphylococcus aureus co-infections” (Biofilm, 2025).
Values after ≈ are worked out from the molar mass of the structure shown. Like-named read-outs stand apart in the source and are kept apart here.

How the values were obtained:
P. aeruginosa LESB58 [1] = assay: MIC, broth microdilution; type: cell-based; settings: Pseudomonas aeruginosa
Protocol: (§1) Minimum inhibitory concentrations (MIC) were determined using an adapted broth microdilution method in Greiner bio flat chimney polypropylene 96-well plates. P. aeruginosa was used at 1 × 10^6 CFU/mL and S. aureus at 5 × 10^6 CFU/mL in MHB (Oxoid) and DFG, respectively. A separate polypropylene plate was used to prepare two-fold peptoid dilutions in PBS pH 7.5 (Gibco). Bacterial growth was determined by visible turbidity after incubation at 37 °C for 16 h (S. aureus) or 24 h (P. aeruginosa). MIC values were determined as the lowest concentration of the drug where no bacterial growth was visible. Metabolic activity (color change from blue to pink) was further determined by adding the metabolic dye PrestoBlue™ (Invitrogen) to each well for 30 min as confirmation of visual determination. All tests were performed in triplicate.

S. aureus USA300 LAC [2] = assay: MIC, broth microdilution; type: cell-based; settings: Staphylococcus aureus, Table S6, antibiotic screen, medium not given
Protocol: as §1

P. aeruginosa LESB58 [3] = assay: Checkerboard titration assay (in vitro synergy); type: cell-based, Pseudomonas aeruginosa; settings: DFG; for Fold decrease in TM18 MIC: TM18 in combination with the named antibiotic; for Fold decrease in TM18 MIC / FICI, antibiotic combination with TM18: checkerboard; for Fold decrease in antibiotic MIC: antibiotic in combination with TM18, checkerboard; for FICI, antibiotic combination with TM18: 1 × 10^6 CFU/mL, 37 °C, 16–24 h, >0.5 and <=1 additive
Protocol: (§2) Each compound was serially diluted in PBS before transferring to a 96-well plate containing 1 × 10^6 CFU/mL P. aeruginosa or S. aureus, respectively, in DFG medium and incubated at 37 °C for 16–24 h. The MIC or combinatorial effect was determined as the lowest concentration with no visible growth and the fractional inhibitory concentration index (FICI) was calculated as [(MICA in combination)/MICA] + [(MICB in combination)/MICB] as previously. FICIs ≤ 0.5 indicate synergy, 0.5–1 indicate additivity and values above 1 indicate indifference or antagonism.

S. aureus USA300 LAC [4] = assay: Checkerboard titration assay (in vitro synergy); type: cell-based, Staphylococcus aureus; settings: DFG; for Fold decrease in TM18 MIC: TM18 in combination with the named antibiotic; for Fold decrease in TM18 MIC / FICI, antibiotic combination with TM18: checkerboard; for Fold decrease in antibiotic MIC: antibiotic in combination with TM18, checkerboard; for FICI, antibiotic combination with TM18: 1 × 10^6 CFU/mL, 37 °C, 16–24 h, >0.5 and <=1 additive
Protocol: as §2

[5] = tested on: P. aeruginosa LESB58 and S. aureus USA300 LAC; assay: Murine skin abscess model, co-infection, abscess size; type: in vivo, Pseudomonas aeruginosa and Staphylococcus aureus; settings: 2.5 × 10^7 CFU of each species s.c., 5 mg/kg of each agent intra-abscess after 1 h
Protocol: (§3) The abscess model was performed as described previously for mono-species infections and modified as follows for dual-species infection. P. aeruginosa and S. aureus were grown individually to an OD600 of 1.0 in dYT broth. Bacterial cells were washed twice in PBS pH 7.4 (Gibco) and resuspended to an OD600 of 2.0 for S. aureus (∼2.5 × 10^7) and 1.0 for P. aeruginosa (∼2.5 × 10^7). For co-infections, P. aeruginosa and S. aureus were mixed (1:1) immediately before injecting 50 μL subcutaneously into the right side of the dorsum. TM1, TM14, TM18, or sterile PBS were injected directly into the infected area 1-h post-infection at a concentration of 5 mg/kg which was the highest concentration determined as non-toxic in our murine model (Table S10). The progression of the infection was monitored daily. A caliper was used to measure the abscess lesion size manually. The SilhouetteStar™ 3D wound camera and SilhouetteConnect™ software were used to photograph, measure, and analyze abscess lesion sizes (visible dermonecrosis). The skin abscesses (including accumulated pus) were excised and homogenized in sterile PBS using SPEX®SamplePrep 1600 MiniG™ for 5 min. […]
(§4) In vitro experiments were performed with at least three biological replicates. […] The predicted additive effect (PAE) was determined by calculating the sum of CFU log reduction for each individual treatment. […]

P. aeruginosa LESB58 [6] = assay: Murine skin abscess model, co-infection, P. aeruginosa survivors; type: in vivo, Pseudomonas aeruginosa; settings: 5 mg/kg intra-abscess after 1 h, day 3, CFU on selective agar
Protocol: as §3, §4

S. aureus USA300 LAC [7] = assay: Murine skin abscess model, co-infection, S. aureus survivors; type: in vivo, Staphylococcus aureus; settings: 5 mg/kg intra-abscess after 1 h, day 3, CFU on selective agar
Protocol: as §3, §4

[8] = Table S6, antibiotic screen, medium not given, read-out: MIC

Compound | MIC (P. aeruginosa LESB58 [1]; [8]) [µg/mL] | MIC (S. aureus USA300 LAC [2]) [µg/mL] | Fold decrease in TM18 MIC (P. aeruginosa LESB58 [3]) [fold] | Fold decrease in antibiotic MIC (P. aeruginosa LESB58 [3]) [fold] | Fold decrease in TM18 MIC (S. aureus USA300 LAC [4]) [fold] | Fold decrease in antibiotic MIC (S. aureus USA300 LAC [4]) [fold] | FICI, antibiotic combination with TM18 (P. aeruginosa LESB58 [3]) | FICI, antibiotic combination with TM18 (S. aureus USA300 LAC [4]) | MIC (P. aeruginosa LESB58 [1]) [µg/mL] | reduction of abscess sizes ([5]; day 3) [%] | reduction of abscess sizes ([5]; day 3, listed as Meropenem) [%] | reduction of P. aeruginosa survivors (P. aeruginosa LESB58 [6]) [fold] | reduction of S. aureus survivors (S. aureus USA300 LAC [7]) [fold]
CC(C)(O/N=C(\C(=O)N[C@@H]1C(=O)N2C(C(=O)[O-])=C(C[n+]3ccccc3)CS[C@H]12)c1csc(N)n1)C(=O)O [CAZ, ceftazidime] | 12.5 (≈ 22.9 µM) | 31.2 (≈ 57.2 µM) | 2 | 4 | 1 | 1 | 0.75 | 1 | – | – | – | – | –
O=C(O)c1cn(C2CC2)c2cc(N3CCNCC3)c(F)cc2c1=O [CIP, ciprofloxacin] | 3.13 (≈ 9.45 µM) | 15.6 (≈ 47.2 µM) | 1 | 2 | 4 | 2 | 1 | 0.75 | – | – | – | – | –
C[C@@H](O)[C@H]1C(=O)N2C(C(=O)O)=C(S[C@@H]3CN[C@H](C(=O)N(C)C)C3)[C@H](C)[C@H]12 [meropenem] | – | 0.78 (≈ 2.03 µM) | 2 | 2 | 2 | 4 | 1 | 0.75 | 1.56 (≈ 4.07 µM) | 78 | 85 | ~100 | ~10

The next lines start with results.

MIC (P. aeruginosa LESB58 [1]; [8]) [µg/mL] | MIC (S. aureus USA300 LAC [2]) [µg/mL] | Fold decrease in TM18 MIC (P. aeruginosa LESB58 [3]) [fold] | Fold decrease in antibiotic MIC (P. aeruginosa LESB58 [3]) [fold] | Fold decrease in TM18 MIC (S. aureus USA300 LAC [4]) [fold] | Fold decrease in antibiotic MIC (S. aureus USA300 LAC [4]) [fold] | Compound | FICI, antibiotic combination with TM18 (P. aeruginosa LESB58 [3]) | FICI, antibiotic combination with TM18 (S. aureus USA300 LAC [4]) | MIC (P. aeruginosa LESB58 [1]) [µg/mL] | reduction of abscess sizes ([5]; day 3) [%] | reduction of abscess sizes ([5]; day 3, listed as Meropenem) [%] | reduction of P. aeruginosa survivors (P. aeruginosa LESB58 [6]) [fold] | reduction of S. aureus survivors (S. aureus USA300 LAC [7]) [fold]
25 (≈ 33.4 µM) | 125 (≈ 167 µM) | 8 | 2 | 1 | 1 | CC[C@H]1OC(=O)[C@H](C)[C@@H](O[C@H]2C[C@@](C)(OC)[C@@H](O)[C@H](C)O2)[C@H](C)[C@@H](O[C@@H]2O[C@H](C)C[C@H](N(C)C)[C@H]2O)[C@](C)(O)C[C@@H](C)CN(C)[C@H](C)[C@@H](O)[C@]1(C)O [AZM, azithromycin] | 0.625 | 1 | – | – | – | – | –
7.81 (≈ 16.4 µM) | 0.78 (≈ 1.63 µM) | 1 | 2 | 1 | 2 | CNC(C)C1CCC(N)C(OC2C(N)CC(N)C(OC3OCC(C)(O)C(NC)C3O)C2O)O1 (stereo not shown) [GEN, gentamicin] | 1 | 1 | – | – | – | – | –
1.56 (≈ 3.34 µM) | 0.78 (≈ 1.67 µM) | 2 | 2 | 1 | 1 | NC[C@H]1O[C@H](O[C@H]2[C@H](O)[C@@H](O[C@H]3O[C@H](CO)[C@@H](O)[C@H](N)[C@H]3O)[C@H](N)C[C@@H]2N)[C@H](N)C[C@@H]1O [tobramycin] | 1 | 1 | – | – | – | – | –
